Patent US20250154611A1, “SYSTEMS AND METHODS TO DETECT STEM CELL STRESS AND USES THEREOF” (Wayne State University, priority 2014, published 2025)
Like-named read-outs stand apart in the source and are kept apart here.

Assays:
[1] = test system: mESCs
Method: Hyperosmotic stress effects on cell proliferation in murine embryonic stem cells (mESCs). (FIG. 13A) mESCs were cultured in the presence of 0-400 mM sorbitol for either 4 or 24 hr and transmitted light micrographs were taken. (FIG. 13B) mESCs were cultured±leukemia inhibitory factor (LIF) and ±200 mM sorbitol for 0-72 hr. mESCs were trypsinized and counted with a hemocytometer following trypan blue exclusion. Error flags represent standard error of the mean, n≥3. (FIG. 13C) Doubling rates were calculated and tabulated from cell counts in (FIG. 13B). (FIG. 13D) mESCs were incubated in the presence of LIF±200 mM sorbitol for 24, 48, or 72 hr and transmitted light micrographs were taken. (FIG. 13E) mESCs were cultured in the presence of 200 mM sorbitol for 0-24 hr. In some wells, cells were lysed, and proteins were fractionated using sodium dodecyl sulfate-polyacrylamide gel electrophoresis (SDS-PAGE), blotted, and probed for the presence of the caspase 3 cleavage product (n=3). Time-matched cells were fixed, and stained for the cleavage product of caspase 3 with Hoechst staining of the nuclei. […]
Results. mESC growth and colony morphology during hyperosmotic stress. […] Osmolality was measured at 330±4 mOsm/kg H2O before sorbitol addition (described in “Materials and Methods” section; Zhong, 2007), and 531±7 mOsm/kg H2O after addition of 200 mM sorbitol. […]

[2] = test system: JNK; assay: phospho-JNK western blot in mESCs under 200 mM sorbitol; assay type: cell-based, mouse; conditions: persisted throughout 1 hr
Method: FIG. 14. […] Blots are representative of triplicate experiments. Phospho-proteins and their loading controls are grouped between black lines.
FIG. 15. […] Blots are representative of triplicate experiments.
Hyperosmotic activation of signaling enzymes. […] Zhong, 2010; Xie, 2011. […] To determine the kinetics of activation of these five kinases in the described system, mESCs were treated with 200 mM sorbitol for 1 hr. Expression levels of the activated (i.e., phosphorylated) enzymes were assayed by western blot analysis (FIG. 14), including phospho-p38MAPK, phospho-JNK, phospho-MEK1/2, and phospho-AKT (the downstream effector of PI3K signaling).
Efficacy of enzyme inhibitors.

OC[C@@H](O)[C@@H](O)[C@H](O)[C@@H](O)CO [sorbitol]
lethality in mESCs ([1]; 200 mM): nonlethal
lethality in mESCs ([1]; 400 mM): lethal
time at which activated JNK was first detected [2]: 20 min
